ChEMBL document CHEMBL5331108, “Design and Synthesis of 4-Fluorophenyl-5-methylene-2(5H)-furanone Derivatives as Potent Quorum Sensing Inhibitors” (J Med Chem, 2023)
≈ marks a conversion by molar mass, not a printed value. Calls of active or inactive are those of the source. The calls are words filed in the database; no cut-off is given here.

Test system: Pseudomonas aeruginosa
Assay: Synergistic antibacterial activity against Pseudomonas aeruginosa 27853 assessed as inhibition of bacterial growth by measuring fold change in ciprofloxacin at 1 to 256 ug/ml incubated for 24 hrs by absorbance based microplate reader analysis
Format: functional
Conditions: dose 1-256 µg/ml

Compound	fold change (FC)
C=C1C(c2ccc(F)cc2)=C(CNC(=O)c2ccc(C)cc2)C(=O)N1c1cccc(C)c1	>=1.5
C=C1C(c2ccc(F)cc2)=C(CNC(=O)c2ccc(C)cc2)C(=O)N1c1ccc(C)cc1	>=1.5

Test system: Bacillus pumilus
Assay: Antibacterial activity against penicillin-susceptible Bacillus pumilus CMCC63202 assessed as inhibition of bacterial growth incubated for 20 hrs by CLSI protocol based microdilution method
Format: functional
Conditions: not given

Compound	MIC [µg/mL]
C=C1OC(=O)C(CNC(=O)CCc2ccccc2)=C1c1ccc(F)cc1	> 512
O=C1C=C(Br)/C(=C/Br)O1	256 (≈ 1010 µM)
C=C1OC(=O)C(CNC(=O)CCCCCCCCCC)=C1c1ccc(F)cc1	> 512
C=C1OC(=O)C(CNC(=O)c2cccc(OC)c2)=C1c1ccc(F)cc1	> 512
C=C1C(c2ccc(F)cc2)=C(CNC(=O)c2ccc(C)cc2)C(=O)N1c1cccc(C)c1	512 (≈ 1200 µM)
C=C1C(c2ccc(F)cc2)=C(CNC(=O)c2ccc(C)cc2)C(=O)N1c1ccc(C)cc1	512 (≈ 1200 µM)

Test system: not listed separately
Assay: Inhibition of quorum sensing system in Pseudomonas aeruginosa PAO1 assessed as inhibition of protease activity at 102.4 ug/ml incubated for 24 hrs by absorbance based assay
Conditions: dose 102.4 µg/ml

Compound	inhibition
C=C1OC(=O)C(CNC(=O)CCCCCCCCCC)=C1c1ccc(F)cc1	Active
C=C1OC(=O)C(CNC(=O)c2cccc(OC)c2)=C1c1ccc(F)cc1	8.6%
C=C1C(c2ccc(F)cc2)=C(CNC(=O)c2ccc(C)cc2)C(=O)N1c1cccc(C)c1	8.6%
C=C1C(c2ccc(F)cc2)=C(CNC(=O)c2ccc(C)cc2)C(=O)N1c1ccc(C)cc1	8.6%

Test system: Pseudomonas aeruginosa
Assay: Inhibition of biofilm formation in Pseudomonas aeruginosa PAO1 at 32 ug/ml incubated for 20 hrs by crystal violet staining based analysis
Format: functional
Conditions: dose 32.0 µg/ml

Compound	inhibition
O=C1C=C(Br)/C(=C/Br)O1	Active
C=C1OC(=O)C(CNC(=O)CCCCCCCCCC)=C1c1ccc(F)cc1	inactive
C=C1OC(=O)C(CNC(=O)c2cccc(OC)c2)=C1c1ccc(F)cc1	Active
C=C1C(c2ccc(F)cc2)=C(CNC(=O)c2ccc(C)cc2)C(=O)N1c1cccc(C)c1	Active
C=C1C(c2ccc(F)cc2)=C(CNC(=O)c2ccc(C)cc2)C(=O)N1c1ccc(C)cc1	inactive

Test system: Pseudomonas aeruginosa
Assay: Antibacterial activity against penicillin-susceptible Pseudomonas aeruginosa ATCC27853 assessed as inhibition of bacterial growth incubated for 20 hrs by CLSI protocol based microdilution method
Format: functional
Conditions: not given

Compound	MIC [µg/mL]
C=C1OC(=O)C(CNC(=O)CCc2ccccc2)=C1c1ccc(F)cc1	> 512
O=C1C=C(Br)/C(=C/Br)O1	256 (≈ 1010 µM)
C=C1OC(=O)C(CNC(=O)CCCCCCCCCC)=C1c1ccc(F)cc1	> 512
C=C1OC(=O)C(CNC(=O)c2cccc(OC)c2)=C1c1ccc(F)cc1	> 512
C=C1C(c2ccc(F)cc2)=C(CNC(=O)c2ccc(C)cc2)C(=O)N1c1cccc(C)c1	> 512
C=C1C(c2ccc(F)cc2)=C(CNC(=O)c2ccc(C)cc2)C(=O)N1c1ccc(C)cc1	> 512

Test system: Pseudomonas aeruginosa
Assay: Antibacterial activity against wild type Pseudomonas aeruginosa […] CGMCC1.12483 assessed as inhibition of bacterial growth incubated for 20 hrs by CLSI protocol based microdilution method
Format: functional
Conditions: not given

Compound	MIC [µg/mL]
C=C1OC(=O)C(CNC(=O)CCc2ccccc2)=C1c1ccc(F)cc1	512 (≈ 1460 µM)
O=C1C=C(Br)/C(=C/Br)O1	128 (≈ 504 µM)
C=C1OC(=O)C(CNC(=O)CCCCCCCCCC)=C1c1ccc(F)cc1	> 512
C=C1OC(=O)C(CNC(=O)c2cccc(OC)c2)=C1c1ccc(F)cc1	> 512
C=C1C(c2ccc(F)cc2)=C(CNC(=O)c2ccc(C)cc2)C(=O)N1c1cccc(C)c1	512 (≈ 1200 µM)
C=C1C(c2ccc(F)cc2)=C(CNC(=O)c2ccc(C)cc2)C(=O)N1c1ccc(C)cc1	512 (≈ 1200 µM)

Test system: Escherichia coli
Assay: Antibacterial activity against penicillin-susceptible Escherichia coli ATCC25922 assessed as inhibition of bacterial growth incubated for 20 hrs by CLSI protocol based microdilution method
Format: functional
Conditions: not given

Compound	MIC [µg/mL]
C=C1OC(=O)C(CNC(=O)CCc2ccccc2)=C1c1ccc(F)cc1	> 512
O=C1C=C(Br)/C(=C/Br)O1	256 (≈ 1010 µM)
C=C1OC(=O)C(CNC(=O)CCCCCCCCCC)=C1c1ccc(F)cc1	> 512
C=C1OC(=O)C(CNC(=O)c2cccc(OC)c2)=C1c1ccc(F)cc1	> 512
C=C1C(c2ccc(F)cc2)=C(CNC(=O)c2ccc(C)cc2)C(=O)N1c1cccc(C)c1	> 512
C=C1C(c2ccc(F)cc2)=C(CNC(=O)c2ccc(C)cc2)C(=O)N1c1ccc(C)cc1	> 512

Test system: Pseudomonas aeruginosa
Assay: Synergistic antibacterial activity against Pseudomonas aeruginosa 27853 assessed as inhibition of bacterial growth incubated for 24 hrs in the presence of Clarithromycin by absorbance based microplate reader analysis
Format: functional, organism-based
Conditions: dose 1-256 µg/ml

Compound	Activity
C=C1OC(=O)C(CNC(=O)c2cccc(OC)c2)=C1c1ccc(F)cc1	Dose-Dependent Effect
C=C1C(c2ccc(F)cc2)=C(CNC(=O)c2ccc(C)cc2)C(=O)N1c1cccc(C)c1	Dose-Dependent Effect
C=C1C(c2ccc(F)cc2)=C(CNC(=O)c2ccc(C)cc2)C(=O)N1c1ccc(C)cc1	Dose-Dependent Effect

Test system: not listed separately
Assay: Inhibition of quorum sensing system in Pseudomonas aeruginosa PAO1 assessed as inhibition of pyocyanin production at 102.4 ug/ml incubated for 18 hrs by absorbance based assay
Conditions: dose 102.4 µg/ml

Compound	inhibition
C=C1OC(=O)C(CNC(=O)CCc2ccccc2)=C1c1ccc(F)cc1	inactive
C=C1OC(=O)C(CNC(=O)CCCCCCCCCC)=C1c1ccc(F)cc1	44.7%
C=C1OC(=O)C(CNC(=O)c2cccc(OC)c2)=C1c1ccc(F)cc1	Active
C=C1C(c2ccc(F)cc2)=C(CNC(=O)c2ccc(C)cc2)C(=O)N1c1cccc(C)c1	35.2%
C=C1C(c2ccc(F)cc2)=C(CNC(=O)c2ccc(C)cc2)C(=O)N1c1ccc(C)cc1	Active

Test system: not listed separately
Assay: Inhibition of quorum sensing system in Pseudomonas aeruginosa PAO1 assessed as inhibition of rhamnolipid production at 102.4 ug/ml incubated for 24 hrs by absorbance based assay
Conditions: dose 102.4 µg/ml

Compound	inhibition
O=C1C=C(Br)/C(=C/Br)O1	44.9%
C=C1OC(=O)C(CNC(=O)CCCCCCCCCC)=C1c1ccc(F)cc1	Active
C=C1OC(=O)C(CNC(=O)c2cccc(OC)c2)=C1c1ccc(F)cc1	Active
C=C1C(c2ccc(F)cc2)=C(CNC(=O)c2ccc(C)cc2)C(=O)N1c1cccc(C)c1	57.1%
C=C1C(c2ccc(F)cc2)=C(CNC(=O)c2ccc(C)cc2)C(=O)N1c1ccc(C)cc1	49.7%

Test system: Pseudomonas aeruginosa
Assay: Antibacterial activity against Pseudomonas aeruginosa PAO1 assessed as inhibition of bacterial growth at 256 ug/ml measured after 25 hrs by absorbance based assay
Format: functional, organism-based
Conditions: dose 256.0 µg/ml

Compound	Activity
O=C1C=C(Br)/C(=C/Br)O1	Active
C=C1OC(=O)C(CNC(=O)CCCCCCCCCC)=C1c1ccc(F)cc1	inactive
C=C1OC(=O)C(CNC(=O)c2cccc(OC)c2)=C1c1ccc(F)cc1	inactive
C=C1C(c2ccc(F)cc2)=C(CNC(=O)c2ccc(C)cc2)C(=O)N1c1cccc(C)c1	inactive
C=C1C(c2ccc(F)cc2)=C(CNC(=O)c2ccc(C)cc2)C(=O)N1c1ccc(C)cc1	inactive

Test system: Pseudomonas aeruginosa
Assay: Synergistic antibacterial activity against Pseudomonas aeruginosa PAO1 assessed as inhibition of bacterial growth at 1 to 256 ug/ml incubated for 24 hrs in the presence of Clarithromycin by absorbance based microplate reader analysis
Format: functional, organism-based
Conditions: dose 1-256 µg/ml

Compound	Activity
C=C1OC(=O)C(CNC(=O)c2cccc(OC)c2)=C1c1ccc(F)cc1	Active

Test system: Pseudomonas aeruginosa
Assay: Antibacterial activity against Pseudomonas aeruginosa 27853 assessed as inhibition of bacterial growth at 256 ug/ml measured after 25 hrs by absorbance based assay
Format: functional, organism-based
Conditions: dose 256.0 µg/ml

Compound	Activity
O=C1C=C(Br)/C(=C/Br)O1	Active
C=C1OC(=O)C(CNC(=O)CCCCCCCCCC)=C1c1ccc(F)cc1	inactive
C=C1OC(=O)C(CNC(=O)c2cccc(OC)c2)=C1c1ccc(F)cc1	inactive
C=C1C(c2ccc(F)cc2)=C(CNC(=O)c2ccc(C)cc2)C(=O)N1c1cccc(C)c1	inactive
C=C1C(c2ccc(F)cc2)=C(CNC(=O)c2ccc(C)cc2)C(=O)N1c1ccc(C)cc1	inactive

Test system: Staphylococcus aureus
Assay: Antibacterial activity against erthromycin-susceptible Staphylococcus aureus ATCC25923 assessed as inhibition of bacterial growth incubated for 20 hrs by CLSI protocol based microdilution method
Format: functional
Conditions: not given

Compound	MIC [µg/mL]
C=C1OC(=O)C(CNC(=O)CCc2ccccc2)=C1c1ccc(F)cc1	> 512
O=C1C=C(Br)/C(=C/Br)O1	32 (≈ 126 µM)
C=C1OC(=O)C(CNC(=O)CCCCCCCCCC)=C1c1ccc(F)cc1	> 512
C=C1OC(=O)C(CNC(=O)c2cccc(OC)c2)=C1c1ccc(F)cc1	> 512
C=C1C(c2ccc(F)cc2)=C(CNC(=O)c2ccc(C)cc2)C(=O)N1c1cccc(C)c1	> 512
C=C1C(c2ccc(F)cc2)=C(CNC(=O)c2ccc(C)cc2)C(=O)N1c1ccc(C)cc1	> 512

Test system: Pseudomonas aeruginosa
Assay: Synergistic antibacterial activity against Pseudomonas aeruginosa PAO1 assessed as inhibition of bacterial growth at 1 to 256 ug/ml incubated for 24 hrs in the presence of ciprofloxacin by absorbance based microplate reader analysis
Format: functional, organism-based
Conditions: dose 1-256 µg/ml

Compound	Activity
C=C1OC(=O)C(CNC(=O)c2cccc(OC)c2)=C1c1ccc(F)cc1	Active
C=C1C(c2ccc(F)cc2)=C(CNC(=O)c2ccc(C)cc2)C(=O)N1c1cccc(C)c1	Active
C=C1C(c2ccc(F)cc2)=C(CNC(=O)c2ccc(C)cc2)C(=O)N1c1ccc(C)cc1	Active

Test system: Staphylococcus aureus
Assay: Antibacterial activity against methicillin-resistant Staphylococcus aureus ATCC43300 assessed as inhibition of bacterial growth incubated for 20 hrs by CLSI protocol based microdilution method
Format: functional
Conditions: not given

Compound	MIC [µg/mL]
C=C1OC(=O)C(CNC(=O)CCc2ccccc2)=C1c1ccc(F)cc1	16 (≈ 45.5 µM)
O=C1C=C(Br)/C(=C/Br)O1	128 (≈ 504 µM)
C=C1OC(=O)C(CNC(=O)CCCCCCCCCC)=C1c1ccc(F)cc1	> 512
C=C1OC(=O)C(CNC(=O)c2cccc(OC)c2)=C1c1ccc(F)cc1	32 (≈ 90.6 µM)
C=C1C(c2ccc(F)cc2)=C(CNC(=O)c2ccc(C)cc2)C(=O)N1c1cccc(C)c1	> 512
C=C1C(c2ccc(F)cc2)=C(CNC(=O)c2ccc(C)cc2)C(=O)N1c1ccc(C)cc1	> 512

Test system: not listed separately
Assay: Hemolytic activity in mouse red blood cells assessed as hemolysis rate at 512 ug/ml incubated for 1 hrs by microplate reader analysis relative to control
Format: toxicity, cell-based, Erythrocyte
Conditions: red blood cells (erythrocytes), at 512 µg/mL, read-out: Activity

Compound	hemolysis at 1 h, 512 ug/ml [%]
C=C1C(c2ccc(F)cc2)=C(CNC(=O)c2ccc(C)cc2)C(=O)N1c1cccc(C)c1	> 2.5
C=C1C(c2ccc(F)cc2)=C(CNC(=O)c2ccc(C)cc2)C(=O)N1c1ccc(C)cc1	> 2.5

Test system: Pseudomonas aeruginosa
Assay: Synergistic antibacterial activity against Pseudomonas aeruginosa 27853 assessed as inhibition of bacterial growth at 1 to 256 ug/ml incubated for 24 hrs in the presence of Ciprofloxacin by absorbance based microplate reader analysis
Format: functional, organism-based
Conditions: dose 1-256 µg/ml

Compound	Activity
C=C1OC(=O)C(CNC(=O)c2cccc(OC)c2)=C1c1ccc(F)cc1	Active
C=C1C(c2ccc(F)cc2)=C(CNC(=O)c2ccc(C)cc2)C(=O)N1c1cccc(C)c1	Active
C=C1C(c2ccc(F)cc2)=C(CNC(=O)c2ccc(C)cc2)C(=O)N1c1ccc(C)cc1	Active

Test system: Bacillus subtilis
Assay: Antibacterial activity against penicillin-susceptible Bacillus subtilis ATCC9372 assessed as inhibition of bacterial growth incubated for 20 hrs by CLSI protocol based microdilution method
Format: functional
Conditions: not given

Compound	MIC [µg/mL]
C=C1OC(=O)C(CNC(=O)CCc2ccccc2)=C1c1ccc(F)cc1	64 (≈ 182 µM)
O=C1C=C(Br)/C(=C/Br)O1	64 (≈ 252 µM)
C=C1OC(=O)C(CNC(=O)CCCCCCCCCC)=C1c1ccc(F)cc1	> 512
C=C1OC(=O)C(CNC(=O)c2cccc(OC)c2)=C1c1ccc(F)cc1	> 512
C=C1C(c2ccc(F)cc2)=C(CNC(=O)c2ccc(C)cc2)C(=O)N1c1cccc(C)c1	> 512
C=C1C(c2ccc(F)cc2)=C(CNC(=O)c2ccc(C)cc2)C(=O)N1c1ccc(C)cc1	512 (≈ 1200 µM)
